Target: Glutamate [NMDA] receptor
Assay: Binding affinity towards PCP receptor in guinea pig brain membrane using radiolabeled ligand [3H]TCP (1-[1-(2-thienyl)cyclohexyl]piperidine) was determined
Type: cell membranes, Cavia porcellus

Compound | Ki [µM]
O=C1C=C(c2ccccc2)OC12CCN(Cc1ccccc1)CC2 | 4.4
O=C1C(c2ccc(F)cc2)=COC12CCN(Cc1ccc(F)cc1)CC2 | 2.03
CCN(CC)CCCC1(C)OC=C(c2ccccc2)C1=O (centres undefined) | 100
O=C1C(c2ccc(F)cc2)=COC12CCN(CC1CCCCC1)CC2 | 12
O=C1C=C(c2ccccc2)OC12CCN(CCc1ccccc1)CC2 | > 10
O=C1C(c2ccc(F)cc2)COC12CCN(Cc1ccccc1)CC2 (centres undefined) | 2.23
O=C1C(c2ccccc2)=COC12CCN(CC1CCCCC1)CC2 | > 10
O=C1C=C(c2ccc(F)cc2)OC12CCN(CCc1ccccc1)CC2 | 8.3
O=C1C(c2ccc(F)cc2)=COC12CCN(Cc1ccccc1)CC2 | > 10

— ChEMBL document CHEMBL1127181, “Novel sigma receptor ligands 1” (Bioorg Med Chem Lett, 1993)
